Literature values as cited in US20040259844A1 (priority 2000, published 2004).

Test system: retinal ganglion cells

SMILES: CN1[C@@H]2CC[C@H]1C[C@@H](OC(=O)C(CO)c1ccccc1)C2 (stereo partly shown) [atropine]
- effect on veratridine-increased survival of retinal ganglion cells: blocked
